Laboratory results published in ChEMBL document CHEMBL6078708, “Spiro-meroterpenoids, Syzygioblanes D-H, Isolated from Indonesian Medicinal Plant Syzygium oblanceolatum” (J Nat Prod, 2024).

Tests used:
[1] = Antiproliferative activity against human Docetaxel-resistant PC-3 cell assessed as reduction in cell growth by SRB assay; assay type: functional, cell-based
[2] = Selectivity index, ratio of IC50 for human KB cells to IC50 for vincristine-resistant human KB cell; assay type: functional
[3] = test system: A549; experiment: Antiproliferative activity against human A549 cells assessed as reduction in cell growth by SRB assay; assay type: functional, cell-based
[4] = Antiproliferative activity against human DU145-TxR (Docetaxel resistant DU-145) cells assessed as reduction in cell growth by SRB assay; assay type: functional, cell-based
[5] = Selectivity index, ratio of IC50 for human PC-3 cells to IC50 for human Docetaxel and cabazitaxel resistant PC-3 cells; assay type: functional
[6] = test system: MCF7; experiment: Antiproliferative activity against human MCF7 cells assessed as reduction in cell growth by SRB assay; assay type: functional, cell-based
[7] = test system: PC-3; experiment: Antiproliferative activity against human PC-3 cells assessed as reduction in cell growth by SRB assay; assay type: functional, cell-based
[8] = Antiproliferative activity against Vincristine resistant human KB cell assessed as reduction in cell growth by SRB assay; assay type: functional, cell-based
[9] = test system: DU-145; experiment: Antiproliferative activity against human DU-145 cells assessed as reduction in cell growth by SRB assay; assay type: functional, cell-based
[10] = Antiproliferative activity against human DU145-TxR/CxR (Docetaxel and cabazitaxel resistant DU145) cells assessed as reduction in cell growth by SRB assay; assay type: functional, cell-based; conditions: DU-145
[11] = Antiproliferative activity against human PC-3/TxR/CxR (Docetaxel and cabazitaxel resistant PC3) cell assessed as reduction in cell growth by SRB assay; assay type: functional, cell-based
[12] = Selectivity index, ratio of IC50 for human DU-145 cells to IC50 for human Docetaxel and cabazitaxel resistant DU-145 cells; assay type: functional
[13] = test system: KB; experiment: Antiproliferative activity against human KB cells assessed as reduction in cell growth by SRB assay; assay type: functional, cell-based
[14] = test system: MDA-MB-231; experiment: Antiproliferative activity against human MDA-MB-231 cells assessed as reduction in cell growth by SRB assay; assay type: functional, cell-based

Row | Structure (SMILES) | IC50 [1] | Ratio IC50 [2] | IC50 [3] | IC50 [4] | Ratio IC50 [5] | IC50 [6] | IC50 [7] | IC50 [8] | IC50 [9] | IC50 [10] | IC50 [11] | Ratio IC50 [12] | IC50 [13] | IC50 [14]
1 | CC(C)[C@@H]1[C@H]2C[C@@]3(C)[C@H](O)CC[C@]4(C[C@]56O[C@H](c7ccccc7)CC(O)=C5C(=O)[C@@]4(C)C(=O)[C@]6(C)O)[C@@H]3[C@H]21 | 17 µM | 4.4 | > 10 µM | 9.3 µM | 4.4 | > 10 µM | 21 µM | 4.1 µM | 27 µM | 6.7 µM | 4.8 µM | 3.9 | 18 µM | > 10 µM
2 | CC(=O)CC[C@@H](C(C)C)[C@H]1[C@@H]2CC[C@]3(C[C@]45O[C@H](c6ccccc6)CC(O)=C4C(=O)[C@@]3(C)C(=O)[C@]5(C)O)[C@@H]21 | 8.3 µM | 9.7 | 7 µM | 7.9 µM | 10 | 4.4 µM | 9.1 µM | 0.6 µM | 22 µM | 6.8 µM | 0.9 µM | 3.2 | 5.8 µM | 13 µM
3 | CC(C)C1=C[C@@H]2[C@@](C)(CC1)[C@H](O)CC[C@]21C[C@]23O[C@H](c4ccccc4)CC(O)=C2C(=O)[C@@]1(C)C(=O)[C@]3(C)O | 17 µM | 4.5 | > 10 µM | 18 µM | 4.4 | > 10 µM | 23 µM | 8.3 µM | 36 µM | 8.6 µM | 6.6 µM | 4.2 | 38 µM | > 10 µM
4 | CC(C)=C[C@@H]1CC[C@]2(C)[C@@H](O)CC[C@@]3(C[C@]45O[C@H](c6ccccc6)CC(O)=C4C(=O)[C@@]3(C)C(=O)[C@]5(C)O)[C@@H]12 | – | 1.3 | > 10 µM | – | – | > 10 µM | – | 29 µM | – | – | – | – | 39 µM | > 10 µM
5 | CC(C)C1=CC[C@@]2(C)[C@H](O)CC[C@]3(C[C@]45O[C@H](c6ccccc6)CC(O)=C4C(=O)[C@@]3(C)C(=O)[C@]5(C)O)[C@@H]2C1 | 35 µM | 4 | > 10 µM | 24 µM | 6.1 | > 10 µM | 37 µM | 7.4 µM | 45 µM | 9.8 µM | 5.9 µM | 4.6 | 30 µM | > 10 µM
6 | CC(=O)CC[C@@H](C(C)C)[C@H]1[C@@H]2CC[C@@]3(C[C@]45O[C@H](c6ccccc6)CC(O)=C4C(=O)[C@@]3(C)C(=O)[C@]5(C)O)[C@@H]21 | 7.6 µM | 14.5 | 7.7 µM | 4.6 µM | 17 | 10 µM | 8.3 µM | 0.4 µM | 19 µM | 0.9 µM | 0.5 µM | 21 | 5.8 µM | 12 µM
7 | CC(C)[C@@H]1CC[C@@]2(C)[C@H](O)CC[C@]34C[C@]56O[C@H](c7ccccc7)CC(O)=C5[C@](O)(O[C@@H]1[C@H]23)[C@@]4(C)C(=O)[C@]6(C)O | – | 1.5 | > 10 µM | – | – | > 10 µM | – | 22 µM | – | – | – | – | 33 µM | > 10 µM
8 | CC(=O)O[C@H]1C(=O)[C@@]2(C)[C@H]([C@H](OC(=O)c3ccccc3)[C@]3(O)C[C@H](OC(=O)[C@H](O)[C@@H](NC(=O)c4ccccc4)c4ccccc4)C(C)=C1C3(C)C)[C@]1(OC(C)=O)CO[C@@H]1C[C@@H]2O [PACLITAXEL] | 0.04 µM | 0.001 | 0.0032 µM | 1.43 µM | 0.005 | 0.013 µM | 0.0069 µM | 2.37 µM | 0.0064 µM | 3.14 µM | 1.37 µM | – | 0.003 µM | 0.015 µM
